Measurements as given in PubChem BioAssay AID248 (DTP/NCI, 2004).
Inconclusive results and toxic doses are left out. Rule as the data show it: active = T/C of 150% or more; inactive = T/C below 125%.

System: L1210 leukemia ip in BDF1 mice, survival T/C
Assay: NCI In Vivo Anticancer Drug Screen. Data for tumor model L1210 Leukemia (intraperitoneal) in B6D2F1 (BDF1) mice
Settings: endpoint: mean survival time, higher = longer survival
Summary of the method: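 Survival endpoint. Drug-treated group vs vehicle group, expressed as T divided by C. Tumor passaged by transplantation.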

[1] = dose: 100.0 mg/kg/injection, schedule: Q01DX001 (ip), vehicle: saline
[2] = dose: 200.0 mg/kg/injection, schedule: Q01DX001 (ip), vehicle: saline
[3] = dose: 100.0 mg/kg/injection, schedule: Q01DX009 (ip), vehicle: saline with Tween-80
[4] = dose: 100.0 mg/kg/injection, schedule: Q04DX002 (ip), vehicle: saline with Tween-80
[5] = dose: 200.0 mg/kg/injection, schedule: Q04DX002 (ip), vehicle: saline with Tween-80
[6] = dose: 200.0 mg/kg/injection, schedule: Q01DX009 (ip), vehicle: saline with Tween-80
[7] = dose: 100.0 mg/kg/injection, schedule: Q04DX003 (ip), vehicle: Klucel (hydroxypropylcellulose) (HPC)
[8] = dose: 200.0 mg/kg/injection, schedule: Q04DX003 (ip), vehicle: Klucel (hydroxypropylcellulose) (HPC)
[9] = dose: 100.0 mg/kg/injection, schedule: Q01DX009 (ip), vehicle: saline
[10] = dose: 100.0 mg/kg/injection, schedule: Q04DX003 (ip), vehicle: saline
[11] = dose: 200.0 mg/kg/injection, schedule: Q01DX009 (ip), vehicle: saline
[12] = dose: 200.0 mg/kg/injection, schedule: Q04DX003 (ip), vehicle: saline
[13] = dose: 400.0 mg/kg/injection, schedule: Q01DX009 (ip), vehicle: saline
[14] = dose: 400.0 mg/kg/injection, schedule: Q04DX003 (ip), vehicle: saline
[15] = dose: 400.0 mg/kg/injection, schedule: Q01DX009 (ip), vehicle: saline with Tween-80
[16] = dose: 400.0 mg/kg/injection, schedule: Q01DX001 (ip), vehicle: saline
[17] = dose: 75.0 mg/kg/injection, schedule: Q01DX001 (ip), vehicle: saline
[18] = dose: 100.0 mg/kg/injection, schedule: Q04DX003 (ip), vehicle: other

Measured: T/C

CCN(CC)CCOC(=O)c1[nH]cnc1/N=N\N(C)C
inactive: [1] 104 % of control | [2] 98 % of control

Cc1cccc(SC(=O)Nc2cc([N+](=O)[O-])ccc2Cl)c1
inactive: dose: 100.0 mg/kg/injection, schedule: Q01DX009 (ip), vehicle: Klucel (hydroxypropylcellulose) (HPC) 92 % of control | dose: 200.0 mg/kg/injection, schedule: Q01DX009 (ip), vehicle: Klucel (hydroxypropylcellulose) (HPC) 98 % of control | dose: 400.0 mg/kg/injection, schedule: Q01DX009 (ip), vehicle: Klucel (hydroxypropylcellulose) (HPC) 88 % of control

CCC1(c2ccccc2)C(=O)N(CBr)C(=O)N(CBr)C1=O
inactive: [3] 90 % of control | [4] 92 % of control | [5] 100 % of control

Nc1nc2nc3c(nc2c(=O)[nH]1)CN(c1ccc(C(=O)NC(CCC(=O)O)C(=O)O)cc1)C3=O (stereo not drawn)
inactive: [3] 93 % of control | [6] 95 % of control

NC(=O)/C=C/C(=O)O (tested in a mixture with another compound)
inactive: dose: 31.25 mg/kg/injection, schedule: Q#A X Z (ip), vehicle: saline 118 % of control | dose: 62.5 mg/kg/injection, schedule: Q#A X Z (ip), vehicle: saline 119 % of control | dose: 125.0 mg/kg/injection, schedule: Q#A X Z (ip), vehicle: saline 100 % of control | dose: 125.0 mg/kg/injection, schedule: Q#A X Z (oral), vehicle: saline 102 % of control | dose: 250.0 mg/kg/injection, schedule: Q#A X Z (oral), vehicle: saline 100 % of control | dose: 500.0 mg/kg/injection, schedule: Q#A X Z (oral), vehicle: saline 102 % of control | dose: 1000.0 mg/kg/injection, schedule: Q#A X Z (oral), vehicle: saline 102 % of control

CCN(CC)CCCC(C)Nc1cc(/C=C/c2ccc(Cl)cc2)nc(/C=C/c2ccc(Cl)cc2)n1 (stereo not drawn)
inactive: dose: 50.0 mg/kg/injection, schedule: Q04DX003 (ip), vehicle: Klucel (hydroxypropylcellulose) (HPC) 96 % of control | [1] 96 % of control | [7] 96 % of control | [2] 98 % of control | [8] 98 % of control

Cc1cc(NS(=O)(=O)c2ccc(N)cc2)no1
inactive: [9] 97 % of control | [10] 104 % of control | [11] 94 % of control | [12] 99 % of control | [13] 96 % of control | [14] 114 % of control

O=C(Nc1ccc(CCO)cc1)c1ccc(F)cc1
inactive: [3] 102 % of control | [6] 93 % of control | [15] 93 % of control

O=P(O)(c1ccccc1)c1ccc(I)cc1
inactive: [1] 100 % of control | [10] 100 % of control | [2] 96 % of control | [12] 96 % of control | [16] 98 % of control | [14] 94 % of control

NC1=NC(=O)/C(=C/c2ccco2)S1
inactive: [17] 98 % of control | dose: 150.0 mg/kg/injection, schedule: Q01DX001 (ip), vehicle: saline 93 % of control | dose: 300.0 mg/kg/injection, schedule: Q01DX001 (ip), vehicle: saline 90 % of control

NC(=O)C(NC(=O)c1ccccc1)Sc1ccccc1 (stereo not drawn)
inactive: dose: 50.0 mg/kg/injection, schedule: Q01DX001 (ip), vehicle: Klucel (hydroxypropylcellulose) (HPC) 100 % of control | dose: 100.0 mg/kg/injection, schedule: Q01DX001 (ip), vehicle: Klucel (hydroxypropylcellulose) (HPC) 100 % of control | dose: 200.0 mg/kg/injection, schedule: Q01DX001 (ip), vehicle: Klucel (hydroxypropylcellulose) (HPC) 96 % of control

COC(=O)Cc1ccc2c(c1)OCO2
inactive: [1] 97 % of control | [2] 101 % of control | [16] 103 % of control

O=P(O)(O)CCC(F)(F)C(F)(F)C(F)(F)C(F)(F)C(F)(F)C(F)(F)C(F)(F)F
inactive: [17] 96 % of control

COC(=O)C1=C(C)NC(=S)NC1c1ccc(N(CCCl)CCCl)cc1Cl (stereo not drawn)
inactive: [7] 95 % of control | [8] 95 % of control | dose: 400.0 mg/kg/injection, schedule: Q04DX003 (ip), vehicle: Klucel (hydroxypropylcellulose) (HPC) 101 % of control

COc1ccccc1OCCOCCN(C)C1CCCCC1
inactive: dose: 12.5 mg/kg/injection, schedule: Q01DX009 (ip), vehicle: Klucel (hydroxypropylcellulose) (HPC) 93 % of control | dose: 25.0 mg/kg/injection, schedule: Q01DX009 (ip), vehicle: Klucel (hydroxypropylcellulose) (HPC) 94 % of control | dose: 25.0 mg/kg/injection, schedule: Q04DX002 (ip), vehicle: Klucel (hydroxypropylcellulose) (HPC) 102 % of control | dose: 50.0 mg/kg/injection, schedule: Q01DX009 (ip), vehicle: Klucel (hydroxypropylcellulose) (HPC) 96 % of control | dose: 50.0 mg/kg/injection, schedule: Q04DX002 (ip), vehicle: Klucel (hydroxypropylcellulose) (HPC) 105 % of control

Fc1ccc2[nH]c3cc4ccncc4cc3c2c1
inactive: dose: 50.0 mg/kg/injection, schedule: Q04DX002 (ip), vehicle: saline 101 % of control | dose: 100.0 mg/kg/injection, schedule: Q04DX002 (ip), vehicle: saline 94 % of control | dose: 200.0 mg/kg/injection, schedule: Q04DX002 (ip), vehicle: saline 94 % of control

Oc1ccc(Cl)cc1Sc1cc(Cl)ccc1O
inactive: dose: 25.0 mg/kg/injection, schedule: Q04DX003 (ip), vehicle: other 103 % of control | dose: 50.0 mg/kg/injection, schedule: Q01DX009 (ip), vehicle: other 95 % of control | dose: 50.0 mg/kg/injection, schedule: Q04DX003 (ip), vehicle: other 97 % of control | dose: 100.0 mg/kg/injection, schedule: Q01DX009 (ip), vehicle: other 111 % of control | [18] 92 % of control | [10] 86 % of control | dose: 200.0 mg/kg/injection, schedule: Q01DX009 (ip), vehicle: other 95 % of control

CC1=CC(=O)NP(=O)(Oc2ccc3ccccc3c2)N1 (stereo not drawn)
inactive: dose: 50.0 mg/kg/injection, schedule: Q01DX005 (ip), vehicle: other 95 % of control | dose: 100.0 mg/kg/injection, schedule: Q01DX005 (ip), vehicle: other 96 % of control | dose: 200.0 mg/kg/injection, schedule: Q01DX005 (ip), vehicle: other 95 % of control | dose: 400.0 mg/kg/injection, schedule: Q01DX005 (ip), vehicle: other 92 % of control

CCOc1nc(N)nc(N)c1-c1ccc(Cl)cc1
inactive: [4] 92 % of control | [5] 96 % of control

c1cc(-c2ncc[nH]2)ccn1
inactive: dose: 100.0 mg/kg/injection, schedule: Q01DX001 (ip), vehicle: saline with Tween-80 100 % of control

NNCc1cc(Cl)c2cccnc2c1O
inactive: dose: 100.0 mg/kg/injection, schedule: Q04DX002 (ip), vehicle: Klucel (hydroxypropylcellulose) (HPC) 105 % of control | dose: 200.0 mg/kg/injection, schedule: Q04DX002 (ip), vehicle: Klucel (hydroxypropylcellulose) (HPC) 105 % of control | dose: 400.0 mg/kg/injection, schedule: Q04DX002 (ip), vehicle: Klucel (hydroxypropylcellulose) (HPC) 99 % of control

NC(=O)N/N=C1\CC2CC1C1CCCC21 (stereo not drawn)
inactive: [18] 104 % of control | dose: 200.0 mg/kg/injection, schedule: Q04DX003 (ip), vehicle: other 98 % of control | dose: 400.0 mg/kg/injection, schedule: Q04DX003 (ip), vehicle: other 94 % of control

COc1ccc(N=C2OC(=O)c3ccccc32)cc1
inactive: [9] 91 % of control | [10] 94 % of control | [11] 100 % of control | [12] 103 % of control | [13] 89 % of control | [14] 92 % of control

COc1ccc(C(CCl)(CCl)c2ccc(OC)c(C)c2)cc1C
inactive: [3] 90 % of control | dose: 100.0 mg/kg/injection, schedule: Q04DX003 (ip), vehicle: saline with Tween-80 100 % of control | [6] 96 % of control | dose: 200.0 mg/kg/injection, schedule: Q04DX003 (ip), vehicle: saline with Tween-80 94 % of control | [15] 86 % of control | dose: 400.0 mg/kg/injection, schedule: Q04DX003 (ip), vehicle: saline with Tween-80 92 % of control

CCCCCCCCC[As](=O)(O)O
inactive: dose: 1.5 mg/kg/injection, schedule: Q01DX001 (ip), vehicle: carboxymethylcellulose (CMC) 98 % of control | dose: 3.0 mg/kg/injection, schedule: Q01DX001 (ip), vehicle: carboxymethylcellulose (CMC) 104 % of control | dose: 60.0 mg/kg/injection, schedule: Q01DX001 (ip), vehicle: carboxymethylcellulose (CMC) 109 % of control
